According to US11541050B2, “Pyrimidine derivatives for the treatment of viral infections” (JANSSEN SCIENCES IRELAND UC, priority 2011, dated 2023):

How the values were obtained:
[1] = molecular target: T1, human TLR8 (wild type sequence) (Homo sapiens, UniProt Q9NR97); experiment: TLR8 cellular NFκB-luc reporter assay, wild type TLR8; format: cell-based; parameters: unit not given here; conditions: lowest effective concentration; for TLR 8 wt LEC: wild type TLR8 (compounds 74 onward); for TLR8-wt_LEC: wild type TLR8 (compounds 1-73)
T1 construct: expressed in transfected cells; host or cells: HEK293
T1 sequence (Q9NR97 27-1041): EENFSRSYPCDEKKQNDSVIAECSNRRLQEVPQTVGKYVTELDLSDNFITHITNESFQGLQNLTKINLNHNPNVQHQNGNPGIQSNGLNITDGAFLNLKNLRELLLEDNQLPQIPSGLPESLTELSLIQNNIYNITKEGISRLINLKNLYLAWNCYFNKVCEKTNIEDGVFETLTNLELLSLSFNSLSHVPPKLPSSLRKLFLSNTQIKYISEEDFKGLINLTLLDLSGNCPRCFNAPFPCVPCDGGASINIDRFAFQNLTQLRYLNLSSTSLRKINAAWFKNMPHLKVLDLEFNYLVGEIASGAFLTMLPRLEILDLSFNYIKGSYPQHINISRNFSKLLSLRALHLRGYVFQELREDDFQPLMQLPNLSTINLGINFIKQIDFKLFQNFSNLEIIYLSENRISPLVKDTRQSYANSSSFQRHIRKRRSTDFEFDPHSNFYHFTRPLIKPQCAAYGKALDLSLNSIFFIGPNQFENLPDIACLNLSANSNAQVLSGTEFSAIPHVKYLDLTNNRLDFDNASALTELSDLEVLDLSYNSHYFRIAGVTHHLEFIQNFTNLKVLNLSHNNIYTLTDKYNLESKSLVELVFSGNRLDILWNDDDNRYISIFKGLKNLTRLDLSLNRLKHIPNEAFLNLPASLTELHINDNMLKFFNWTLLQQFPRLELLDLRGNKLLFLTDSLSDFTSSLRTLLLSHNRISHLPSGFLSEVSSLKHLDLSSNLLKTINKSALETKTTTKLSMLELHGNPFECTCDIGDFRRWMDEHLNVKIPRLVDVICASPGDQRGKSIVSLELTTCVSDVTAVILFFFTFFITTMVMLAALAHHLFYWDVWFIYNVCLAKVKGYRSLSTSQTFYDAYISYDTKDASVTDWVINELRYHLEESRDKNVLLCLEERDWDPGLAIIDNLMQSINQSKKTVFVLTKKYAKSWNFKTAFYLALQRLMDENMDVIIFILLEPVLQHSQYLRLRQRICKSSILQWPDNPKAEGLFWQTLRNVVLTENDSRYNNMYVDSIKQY
Outline: (§1)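 First, HEK293 cells were co-transfected with TLR7 or TLR8 (native or LRR2-deletion) and NFκB-luc and cultured 48 h. Next, cells were incubated with compound for 6 h at 37 °C. Finally, luciferase was read; LEC came from dose-response curves run in quadruplicate.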

[2] = molecular target: T2, human TLR7 (wild type sequence) (Homo sapiens, UniProt Q9NYK1); experiment: TLR7 cellular NFκB-luc reporter assay, wild type TLR7; format: cell-based; parameters: unit not given here; conditions: lowest effective concentration, wild type TLR7 (compounds 74 onward)
T2 construct: expressed in transfected cells; host or cells: HEK293
T2 sequence (Q9NYK1 27-1049): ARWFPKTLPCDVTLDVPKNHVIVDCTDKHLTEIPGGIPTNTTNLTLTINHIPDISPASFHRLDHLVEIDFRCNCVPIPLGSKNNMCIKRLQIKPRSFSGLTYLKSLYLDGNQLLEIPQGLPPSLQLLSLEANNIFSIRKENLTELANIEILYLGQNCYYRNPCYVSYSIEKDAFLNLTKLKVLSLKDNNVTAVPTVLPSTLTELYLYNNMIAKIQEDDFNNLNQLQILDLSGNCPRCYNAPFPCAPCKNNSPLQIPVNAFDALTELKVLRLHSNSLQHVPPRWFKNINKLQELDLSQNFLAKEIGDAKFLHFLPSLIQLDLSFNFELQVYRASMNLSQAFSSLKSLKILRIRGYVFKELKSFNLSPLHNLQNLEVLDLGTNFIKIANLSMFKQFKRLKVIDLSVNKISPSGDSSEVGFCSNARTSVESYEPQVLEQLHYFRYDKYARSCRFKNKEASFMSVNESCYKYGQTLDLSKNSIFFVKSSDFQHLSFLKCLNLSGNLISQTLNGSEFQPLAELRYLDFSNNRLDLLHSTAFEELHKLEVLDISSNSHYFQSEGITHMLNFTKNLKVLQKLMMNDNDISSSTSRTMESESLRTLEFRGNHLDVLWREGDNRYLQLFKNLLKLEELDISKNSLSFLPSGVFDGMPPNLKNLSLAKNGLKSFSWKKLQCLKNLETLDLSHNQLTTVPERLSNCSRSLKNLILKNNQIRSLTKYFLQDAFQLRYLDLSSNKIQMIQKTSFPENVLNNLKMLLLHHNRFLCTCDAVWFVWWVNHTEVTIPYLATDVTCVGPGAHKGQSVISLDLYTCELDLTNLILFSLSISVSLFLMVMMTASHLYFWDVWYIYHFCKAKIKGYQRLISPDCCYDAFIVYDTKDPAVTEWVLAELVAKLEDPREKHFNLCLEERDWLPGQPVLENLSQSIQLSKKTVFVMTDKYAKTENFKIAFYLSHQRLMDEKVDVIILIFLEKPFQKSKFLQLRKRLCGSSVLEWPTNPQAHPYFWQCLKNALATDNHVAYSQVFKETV
Outline: as §1

[3] = test system: interferon-stimulated responsive elements (ISRE) in HEK-ISREluc cells; experiment: Activation of ISRE promoter elements by conditioned media from compound-treated PBMC; format: cell-based, human; parameters: unit not given here; conditions: conditioned media from compound-treated PBMC on HEK-ISREluc cells
Method: The potential of compounds to induce IFN-I was also evaluated by measuring the activation of interferon-stimulated responsive elements (ISRE) by conditioned media from PBMC. […] The plasmid pISRE-Luc from Clontech (ref. 631913) contains 5 copies of this ISRE element, followed by the firefly luciferase ORF. A HEK293 cell line stably transfected with pISRE-Luc (HEK-ISREluc) was established to profile of the conditioned PBMC cell culture media.
Briefly, PBMCs were prepared from buffy coats of at least two donors using a standard Ficoll centrifugation protocol. Isolated PBMCs were resuspended in RPMI medium supplemented with 10% human AB serum and 2×10^5 cells/well were dispensed into 384-well plates containing compounds (70 μL total volume). After overnight incubation, 10 μL of supernatant was transferred to 384-well plates containing 5×10^3 HEK-ISREluc cells/well in 30 μL (plated the day before). Following 24 hours of incubation, activation of the ISRE elements was measured by assaying luciferase activity using 40 μL/well Steady Lite Plus substrate (Perkin Elmer) and measured with ViewLux ultraHTS microplate imager (Perkin Elmer). The stimulating activity of each compound on the HEK-ISREluc cells was reported as LEC value, defined as the compound concentration applied to the PBMCs resulting in a luciferase activity at least two fold above the standard deviation of the assay. The LEC in turn indicates the degree of ISRE activation on transfer of a defined amount of PBMC culture medium. Recombinant interferon α-2a (Roferon-A) was used as a standard control compound.
For a given compound, the LEC value obtained from this assay were in the same range as the EC50 values obtained from the “suppression of HCV replication assay.” Thus, it is possible to compare the potential of compounds to induce IFN-I by PBMC, measured by either of the 2 assays.

[4] = test system: human TLR8 mutant sequence comprising a deletion in the second leucine-rich repeat; experiment: TLR8 cellular NFκB-luc reporter assay, mutant TLR8 with deletion in the second leucine-rich repeat; format: cell-based; parameters: unit not given here; conditions: lowest effective concentration, TLR8 mutant with deletion in second leucine-rich repeat
Outline: (§2)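 HEK293 cells transiently co-transfected with CMV-driven mutant TLR7 or TLR8 plasmid plus NFκB-luc reporter, cultured 48 h at 37 °C, then exposed to compound for 6 h at 37 °C, 5% CO2. Luciferase luminescence measured; dose-response curves from quadruplicates.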

[5] = test system: human TLR7 mutant sequence comprising a deletion in the second leucine-rich repeat; experiment: TLR7 cellular NFκB-luc reporter assay, mutant TLR7 with deletion in the second leucine-rich repeat; format: cell-based; parameters: unit not given here; conditions: lowest effective concentration, TLR7 mutant with deletion in second leucine-rich repeat
Outline: as §2

[6] = test system: HCV replicon in Huh-7 luc/neo cells; experiment: Suppression of HCV replicon replication by conditioned media from compound-treated PBMC; format: cell-based, HCV type 1 b; conditions: Hepatitis C virus, Huh-7; read-out: PBMC-HUH7_EC50
Outline: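 Human PBMC (≥2 donors, RPMI + 10% human AB serum, 2×10^5 cells/well) incubated overnight with compounds; supernatant transferred onto Huh-7 luc/neo HCV 1b replicon cells. After 24 h, replication read as luciferase activity. Recombinant interferon α-2a served as standard.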

SMILES | TLR 8 wt LEC [1] | TLR 7 wt LEC [2] | HEK-ISREluc LEC [3] | TLR8-wt_LEC [1] | TLR8-dIRR2_LEC [4] | TLR7-dIRR2_LEC [5] | EC50 [6]
CCCCNc1nc(N)ncc1OCc1cccc(CO)c1 [Compound 77] | 0.623 | 0.449 | 0.137 |  |  |  | 
CCCC[C@@H](CCO)Nc1nc(N)ncc1OCc1cc(C)nn1C [Compound 81] | 0.429 | 0.101 | 0.086 |  |  |  | 
CCC[C@@H](CO)Nc1nc(N)ncc1OCc1ncc(C)c(OC)c1C [Compound 76] | 0.055 | 0.021 | 0.008 |  |  |  | 
CCCC[C@@H](CCOC(=O)NCC)Nc1nc(N)ncc1OC [Compound 89] | 6.670 | 1.670 | 0.526 |  |  |  | 
CCCCNc1nc(N)ncc1OCc1c[nH]nn1 [Compound 86] | 3.750 | 0.646 | 0.131 |  |  |  | 
CCCCNc1nc(N)ncc1OCc1ccccc1OC(F)(F)F [Compound 43] |  |  |  | 8.22 | 1.66 | 0.08 | 790 nM
C=CCCOc1cnc(N)nc1NCCCC [Compound 16] |  |  |  | 2.68 | 0.59 | 0.49 | 790 nM
CCCCNc1nc(N)ncc1OCc1cc(-c2ccc(OC)cc2)no1 [Compound 35] |  |  |  | 1.67 | 1.66 | 0.39 | 1500 nM
CCCCNc1nc(N)ncc1OCc1cncn1-c1ccccc1C [Compound 50] |  |  |  | >25 | >25 | 0.51 | 780 nM
CCCCNc1nc(N)ncc1OCc1cncn1C(C)c1ccccc1 (stereo not drawn) [Compound 37] |  |  |  | 9.22 | 5.69 | 0.04 | 120 nM
CCCCNc1nc(N)ncc1OCCOCCOC [Compound 61] |  |  |  | 3.59 | 1.56 | 1.38 | 1910 nM
CCCCNc1nc(N)ncc1OCc1ccc(C(=O)OCC)o1 [Compound 46] |  |  |  | 3.85 | 1.96 | 0.19 | 2510 nM
CCCCNc1nc(N)ncc1OCCCC(N)=O [Compound 28] |  |  |  | 9.18 | 6.99 | 2.47 | 1750 nM
CCC[C@@H](CCO)Nc1nc(N)ncc1OCc1[nH]ccc(=O)c1OC [Compound 88] |  |  | 0.050 |  |  |  | 
CCCCNc1nc(N)ncc1OCc1ccc(Cl)c(Cl)c1 [Compound 11] |  |  |  | 4.52 | 3.50 | 0.60 | 780 nM
CCCCNc1nc(N)ncc1OCc1ccc(C(=O)O)cc1OC [Compound 67] |  |  |  | >24.59 | >24.59 | 2.31 | 2430 nM
CCCCNc1nc(N)ncc1OC(C)c1ccccc1 (stereo not drawn) [Compound 69] |  |  |  | 6.43 | 2.22 | 3.75 | 6160 nM
CCCCNc1nc(N)ncc1OCc1occc1C(=O)OC [Compound 45] |  |  |  | 0.58 | 0.40 | 0.17 | 170 nM
CCCCNc1nc(N)ncc1OCCN [Compound 30] |  |  |  | 6.44 | 1.16 | >25 | 9070 nM
CCCCNc1nc(N)ncc1OCc1ccc(C(=O)OC)cc1OC [Compound 44] |  |  |  | 3.11 | 1.96 | 0.16 | 590 nM
